Data published in ChEMBL document CHEMBL1201862, “PubChem BioAssay data set” (2004).
Active and inactive are the calls of the source.

Assays:
HEK293 = assay: EBV LMP1 TES2 canonical NF-kB signalling blockers – cell-based, HEK293, luciferase, cherry-pick, dose response (AID 588343); assay type: functional; conditions: Homo sapiens
Vero [1] = assay: mammalian cell viability reduction – secondary assay, cytotoxicity control for West Nile virus antiviral project, dose response (AID 1650); assay type: functional; conditions: Chlorocebus sabaeus
[2] = Luminescence Cell-Based Dose Retest to Confirm Inhibitors of Cancer Stem Cells. [Related pubchem assays (depositor defined):AID2717, AID2721]; assay type: functional; conditions: Homo sapiens
[3] = molecular target: T1, Latent membrane protein 1 (Human herpesvirus 4 (strain B95-8), UniProt P03230); assay: LMP1 TES1 pathway selectivity over dsRED control – imaging, HEK293T, dual-color eGFP/dsRED, cherry-picks, selectivity assay for LMP1 NF-kB inhibitor project, dose response (AID 588398); assay type: functional, cell-based
T1 sequence (P03230 whole entry): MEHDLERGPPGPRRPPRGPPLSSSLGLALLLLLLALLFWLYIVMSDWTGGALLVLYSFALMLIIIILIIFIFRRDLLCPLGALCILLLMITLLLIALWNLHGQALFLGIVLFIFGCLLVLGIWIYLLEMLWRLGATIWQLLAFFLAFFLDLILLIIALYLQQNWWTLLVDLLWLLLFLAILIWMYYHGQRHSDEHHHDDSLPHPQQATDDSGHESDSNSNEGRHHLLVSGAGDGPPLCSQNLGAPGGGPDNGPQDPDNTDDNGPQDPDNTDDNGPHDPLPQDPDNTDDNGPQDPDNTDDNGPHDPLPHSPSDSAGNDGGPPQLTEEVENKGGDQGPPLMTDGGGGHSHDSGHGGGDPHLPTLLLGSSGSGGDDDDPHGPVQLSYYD

BJ [4] = assay: BJ-TERT-LT-ST fibroblast viability loss – cell-based, RAS-independent, luminescence, dose response (AID 1935); assay type: functional; conditions: Homo sapiens;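 also: BJ fibroblasts immortalized with TERT plus LT and ST oncogenes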
cells [5] = assay type: functional, cell-based
BJ [6] = assay: cells; assay type: functional, cell-based; conditions: Homo sapiens
BJ [7] = assay: BJ-TERT fibroblast viability loss – cell-based, RAS-independent, luminescence, dose response (AID 1933); assay type: functional; conditions: Homo sapiens
[8] = DRD fibroblast viability loss – cell-based, non-viral oncogenic, luminescence, dose response (AID 1934); assay type: functional; conditions: Homo sapiens
INS1 = assay: INS-1E survival protection against cytokine death – cell-based, luminescence, retest, dose response (AID 449756); assay type: functional; conditions: Rattus norvegicus;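 also: cell death triggered by IL-1 beta plus TNF-alpha plus IFN-gamma mixture; protective hits raise ATP signal compared with cytokine alone wells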
cells [9] = assay type: functional, cell-based; remark: listed apart in the source
[10] = NIH-3T3 fibroblast cytotoxicity, dose response, cytotoxicity control, cell-based, fluorescence, Alamar Blue, secondary assay (AID 2327); assay type: functional;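 also: NIH-3T3 mouse fibroblasts cultured with fluconazole at 8 µg/mL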
[11] = fluconazole-exposed Candida albicans growth modulators – fluorescence, retest, confirmation (AID 2467); assay type: functional, cell-based
BJ [12] = assay: growth inhibition of engineered Ras-driven BJ cells – cell-based, alamar blue fluorescence, cherrypicked samples, dose response (AID 2631); assay type: functional; conditions: Homo sapiens;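 also: confirmatory dose-response assay in RAS-dependent BJ fibroblasts engineered with TERT, LT and ST, with cytotoxicity read by fluorescence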
[13] = molecular target: T2, Sentrin-specific protease 7 (Homo sapiens, UniProt Q9BQF6); assay type: functional;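 also: Luminescence-based dose-response confirmation of ultra-high-throughput screening hits, measuring inhibition of SENP7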
T2 sequence (Q9BQF6 whole entry): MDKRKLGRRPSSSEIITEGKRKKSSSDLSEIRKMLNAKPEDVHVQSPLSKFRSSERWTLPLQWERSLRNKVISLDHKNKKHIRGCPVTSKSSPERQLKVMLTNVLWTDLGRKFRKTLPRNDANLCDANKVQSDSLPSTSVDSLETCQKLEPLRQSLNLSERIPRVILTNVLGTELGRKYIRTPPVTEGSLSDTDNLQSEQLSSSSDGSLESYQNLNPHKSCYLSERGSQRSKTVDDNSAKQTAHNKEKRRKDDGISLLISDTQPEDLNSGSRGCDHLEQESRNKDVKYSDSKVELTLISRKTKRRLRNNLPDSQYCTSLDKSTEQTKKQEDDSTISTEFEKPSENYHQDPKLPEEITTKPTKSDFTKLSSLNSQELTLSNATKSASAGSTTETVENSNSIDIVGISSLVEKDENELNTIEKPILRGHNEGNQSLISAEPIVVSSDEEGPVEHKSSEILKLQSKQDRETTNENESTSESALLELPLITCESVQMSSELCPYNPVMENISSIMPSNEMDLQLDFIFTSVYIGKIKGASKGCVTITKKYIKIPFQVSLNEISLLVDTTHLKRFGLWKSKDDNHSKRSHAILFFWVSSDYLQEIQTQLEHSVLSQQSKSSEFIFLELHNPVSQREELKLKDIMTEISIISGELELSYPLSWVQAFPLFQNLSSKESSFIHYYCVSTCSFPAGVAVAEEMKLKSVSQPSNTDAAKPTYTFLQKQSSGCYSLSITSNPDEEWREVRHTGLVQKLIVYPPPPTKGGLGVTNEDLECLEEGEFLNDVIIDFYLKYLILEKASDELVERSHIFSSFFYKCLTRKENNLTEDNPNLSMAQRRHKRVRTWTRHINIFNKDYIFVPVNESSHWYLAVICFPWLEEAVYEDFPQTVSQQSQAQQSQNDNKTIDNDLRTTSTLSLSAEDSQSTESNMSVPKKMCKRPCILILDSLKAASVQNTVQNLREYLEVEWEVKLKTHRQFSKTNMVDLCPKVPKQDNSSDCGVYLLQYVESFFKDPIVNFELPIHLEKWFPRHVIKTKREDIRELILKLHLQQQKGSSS

HeLa = assay: ATP-based viability loss in HeLa cells – cell-based, CellTiter-Glo luminescence, cherry-pick samples, cytotoxicity control for MITF activator project, dose response (AID 540259); assay type: functional; conditions: Homo sapiens
[14] = molecular target: T3, Sentrin-specific protease 6 (Homo sapiens, UniProt Q9GZR1); assay type: functional;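 also: Luminescence-based dose-response confirmatory assay of SENP6 inhibition, following up an ultra-high-throughput screen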
T3 sequence (Q9GZR1 whole entry): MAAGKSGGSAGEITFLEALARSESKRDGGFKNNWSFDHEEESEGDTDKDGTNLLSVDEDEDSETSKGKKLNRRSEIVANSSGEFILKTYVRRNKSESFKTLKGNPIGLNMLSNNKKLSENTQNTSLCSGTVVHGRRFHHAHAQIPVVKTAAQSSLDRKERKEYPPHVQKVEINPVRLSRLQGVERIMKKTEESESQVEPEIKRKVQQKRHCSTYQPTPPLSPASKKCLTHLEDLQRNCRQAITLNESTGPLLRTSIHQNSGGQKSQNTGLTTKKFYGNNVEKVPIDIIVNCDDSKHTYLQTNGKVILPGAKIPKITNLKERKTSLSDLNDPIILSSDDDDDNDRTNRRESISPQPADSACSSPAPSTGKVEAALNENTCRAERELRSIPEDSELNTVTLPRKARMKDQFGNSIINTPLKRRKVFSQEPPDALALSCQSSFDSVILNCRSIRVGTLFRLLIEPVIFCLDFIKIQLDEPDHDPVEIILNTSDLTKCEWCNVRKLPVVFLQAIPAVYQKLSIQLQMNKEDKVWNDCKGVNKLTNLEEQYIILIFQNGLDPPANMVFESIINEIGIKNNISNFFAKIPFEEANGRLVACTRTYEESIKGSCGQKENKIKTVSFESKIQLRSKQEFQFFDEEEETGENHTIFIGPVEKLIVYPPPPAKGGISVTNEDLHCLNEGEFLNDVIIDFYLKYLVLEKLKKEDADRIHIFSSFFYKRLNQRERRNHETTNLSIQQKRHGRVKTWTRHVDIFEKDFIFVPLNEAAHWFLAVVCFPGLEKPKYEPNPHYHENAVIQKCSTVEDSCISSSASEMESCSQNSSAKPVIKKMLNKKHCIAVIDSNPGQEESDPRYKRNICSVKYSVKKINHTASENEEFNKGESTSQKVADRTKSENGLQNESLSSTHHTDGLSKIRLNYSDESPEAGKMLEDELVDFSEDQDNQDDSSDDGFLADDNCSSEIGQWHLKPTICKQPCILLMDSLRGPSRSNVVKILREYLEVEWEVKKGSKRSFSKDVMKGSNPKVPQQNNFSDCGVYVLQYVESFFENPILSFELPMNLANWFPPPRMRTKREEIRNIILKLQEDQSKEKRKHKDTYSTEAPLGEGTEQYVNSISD

[15] = molecular target: T4, Sentrin-specific protease 8 (Homo sapiens, UniProt Q96LD8); assay type: functional;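 also: luminescence read-out of SENP8 inhibition, dose-response confirmation following an ultra-high-throughput screen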
T4 sequence (Q96LD8 whole entry): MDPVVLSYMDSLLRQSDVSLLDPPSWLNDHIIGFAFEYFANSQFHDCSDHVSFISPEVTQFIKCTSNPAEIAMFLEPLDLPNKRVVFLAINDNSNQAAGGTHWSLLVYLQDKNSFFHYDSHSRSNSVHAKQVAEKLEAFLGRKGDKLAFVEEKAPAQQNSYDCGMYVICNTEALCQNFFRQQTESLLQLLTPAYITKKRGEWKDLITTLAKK

Caspase-3 = molecular target: T5, Caspase-3 (Homo sapiens, UniProt P42574); assay type: functional;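 also: Dose-response selectivity test against caspase-3 for candidate inhibitors of sentrin-specific proteases (SENPs)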
T5 sequence (P42574 whole entry): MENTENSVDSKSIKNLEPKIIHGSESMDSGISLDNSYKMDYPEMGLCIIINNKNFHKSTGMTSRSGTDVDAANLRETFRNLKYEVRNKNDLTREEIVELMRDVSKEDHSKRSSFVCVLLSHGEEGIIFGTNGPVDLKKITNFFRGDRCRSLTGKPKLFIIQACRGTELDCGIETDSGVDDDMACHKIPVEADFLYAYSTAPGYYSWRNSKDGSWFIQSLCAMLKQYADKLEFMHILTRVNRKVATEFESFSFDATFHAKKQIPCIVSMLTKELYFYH

Genome polyprotein = Genome polyprotein (dengue virus type 2, UniProt P29990); assay: flavivirus cap methylation enzyme inhibition – biochemical, confirmation dose response, primary screen (AID 588689); assay type: functional
Sequence of Genome polyprotein (P29990 2492-3391 limits assumed): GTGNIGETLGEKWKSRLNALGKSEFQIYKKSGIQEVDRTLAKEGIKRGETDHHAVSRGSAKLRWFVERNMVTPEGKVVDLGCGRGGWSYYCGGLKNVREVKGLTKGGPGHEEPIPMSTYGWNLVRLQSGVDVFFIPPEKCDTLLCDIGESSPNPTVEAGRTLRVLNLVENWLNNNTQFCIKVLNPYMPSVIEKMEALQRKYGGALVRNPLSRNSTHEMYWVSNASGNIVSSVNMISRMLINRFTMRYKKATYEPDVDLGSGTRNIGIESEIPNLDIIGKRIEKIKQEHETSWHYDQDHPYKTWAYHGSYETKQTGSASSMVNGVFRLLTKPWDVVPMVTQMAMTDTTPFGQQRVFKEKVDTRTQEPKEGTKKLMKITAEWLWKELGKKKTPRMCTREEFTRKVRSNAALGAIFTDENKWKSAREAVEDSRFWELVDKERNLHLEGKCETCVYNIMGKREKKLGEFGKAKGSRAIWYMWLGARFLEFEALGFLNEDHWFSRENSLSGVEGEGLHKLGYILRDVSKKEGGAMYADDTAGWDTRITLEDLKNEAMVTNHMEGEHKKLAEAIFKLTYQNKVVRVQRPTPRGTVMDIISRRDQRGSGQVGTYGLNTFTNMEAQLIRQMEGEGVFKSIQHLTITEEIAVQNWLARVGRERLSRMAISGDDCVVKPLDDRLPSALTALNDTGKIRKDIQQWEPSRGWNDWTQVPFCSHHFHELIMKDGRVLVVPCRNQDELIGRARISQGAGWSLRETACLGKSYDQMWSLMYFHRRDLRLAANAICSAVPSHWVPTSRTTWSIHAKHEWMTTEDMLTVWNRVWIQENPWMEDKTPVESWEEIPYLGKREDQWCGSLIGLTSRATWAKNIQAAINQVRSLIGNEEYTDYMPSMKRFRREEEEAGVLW

Vero [16] = assay: viability of Vero cells under compound – cytotoxicity control for flavivirus capping enzyme inhibitors (AID 588742); assay type: functional; conditions: Chlorocebus sabaeus
[17] = Trypanosoma cruzi growth suppression in host cells – NIH3T3 host cells, beta-gal luminescence, confirmation (AID 2044); assay type: functional, cell-based;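 also: intracellular parasites grown in NIH/3T3 mouse fibroblasts as host cells; luminescent beta-galactosidase reporter signal from transgenic T. cruzi replicating inside host cells; inhibitors lower the luminescence signal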
Protein Wnt-3a = Protein Wnt-3a (Mus musculus, UniProt P27467); assay: antagonism of Wnt3a pathway luciferase reporter – Wnt-LIGHT cells, luminescence, selectivity assay for Gli-SUFU antagonist project, dose response (AID 651570); assay type: functional; conditions: read-out: IC50_Mean;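 also: Wnt-LIGHT reporter cells stimulated with conditioned medium from Wnt3a-producing cells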
Sequence of Protein Wnt-3a (P27467 whole entry): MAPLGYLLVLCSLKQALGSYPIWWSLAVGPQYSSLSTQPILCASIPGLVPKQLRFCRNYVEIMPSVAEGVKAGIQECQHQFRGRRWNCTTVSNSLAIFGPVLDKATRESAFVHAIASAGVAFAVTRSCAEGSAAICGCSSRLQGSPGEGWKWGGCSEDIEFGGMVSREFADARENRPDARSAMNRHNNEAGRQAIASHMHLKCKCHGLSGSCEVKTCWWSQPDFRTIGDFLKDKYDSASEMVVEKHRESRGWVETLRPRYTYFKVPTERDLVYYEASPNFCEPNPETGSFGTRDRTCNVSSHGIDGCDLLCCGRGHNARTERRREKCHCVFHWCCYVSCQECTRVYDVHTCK

[18] = NIH3T3 cell viability loss – ATP luminescence, mouse fibroblasts, counter-screen, dose response (AID 2010); assay type: functional, cell-based;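 also: cells exposed to compound for about 90 hours before reading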
[19] = loss of viability in HepG2 cells – cell-based, CellTiter-Glo, cherry-picked, cytotoxicity control for Shn3 inhibitor project, dose response (AID 624134); assay type: functional
[20] = non-specific 3'UTR reporter inhibition in Clone20-Shn3RL – cell-based, Renilla luciferase, cherry-picked, counter-screen for Shn3 inhibitor project, dose response (AID 624133); assay type: functional
[21] = reduction of Shn3 3'UTR-driven luciferase in osteoblasts – cell-based, Clone20 osteoblasts, firefly luciferase, cherry-picked, dose response (AID 624132); assay type: functional;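 also: firefly luciferase luminescence from reporter carrying the Shn3 3'UTR in osteoblasts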
[22] = HEK-293T viability loss after treatment – luminescence, T-cell screen hits, cytotoxicity control for TCR NF-kB inhibitor project, dose response (AID 489026); assay type: functional, cell-based;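 also: cells exposed to compound about 14 hours before the viability readout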
[23] = luciferase reporter signal suppression in cells – H4 neuroglioma cells, luminescence, dose response (AID 1990); assay type: functional, cell-based
[24] = Luminescence Cell-Based Dose Response HTS to Identify Inhibitors of 5'UTR Stem-Loop Driven Prion Protein mRNA Translation in H4 Neuroglioblastoma Cells. [Related pubchem assays: 1827 (Project Summary), 1813 (Primary HTS)]; assay type: functional
[25] = microbe, parasite or virus in culture; assay type: functional; conditions: Mycobacterium tuberculosis
[26] = alpha-synuclein stem-loop luciferase translation blockers – H4 neuroglioma cells, luminescence, confirmation (AID 1988); assay type: functional, cell-based

O=C(Nc1cc(C(F)(F)F)cc(C(F)(F)F)c1)Nc1cnn(-c2ccc([N+](=O)[O-])cc2)c1C(F)(F)F
AC50 (HEK293): 1.12 µM (active)
CC50 (Vero [1]): 2.94 µM (active)
AC50 [2]: 0.442 µM (active)
AC50 [3]: 3.91 µM (active)

COc1ccc2[nH]c(C(=O)N/N=C/c3ccc(O)cc3O)cc2c1
AC50 (HEK293): 7.59 µM (active)
EC50 (BJ [4]): 10.1 µM (inconclusive)
EC50 (cells [5]): 9.59 µM (active)
EC50 (BJ [6]): 10.8 µM (active)
EC50 (BJ [7]): 12.2 µM (active)
EC50 [8]: 9.2 µM (inconclusive)
AC50 (INS1): 0.694 µM (active)
AC50 [3]: 20.3 µM (active)

Oc1cnnc(N/N=C/c2ccccn2)n1
EC50 (cells [9]): > 350 µM (not active)
EC50 (BJ [4]): 6.06 µM (active)
EC50 [10]: 2.5 µM (inconclusive)
EC50 (cells [5]): 7.62 µM (active)
EC50 (BJ [6]): 4.19 µM (active)
EC50 [11]: 1.26 µM (active)
EC50 (BJ [7]): 7.32 µM (active)
EC50 [8]: 6.35 µM (active)
AC50 (INS1): 1.37 µM (active)
EC50 (BJ [12]): 0.798 µM (active)

CC(C)NC(=O)c1ccc2c3n(nc2c1)-c1ccc(Cl)cc1CO3
IC50 [13]: 18.4 µM (active)
AC50 (HeLa): 50.7 µM (active)
IC50 [14]: 81.8 µM (active)
IC50 [15]: 69.3 µM (active)
IC50 (Caspase-3): 24 µM (active)

O=C(c1ccccc1)c1ccc(O)c(O)c1O
IC50 (Genome polyprotein): 57.7 µM (active)
CC50 (Vero [16]): > 40 µM (active)

Cc1ccc2c(c1)S/C(=C/c1ccc[n+](C)c1)N2CCO
EC50 [17]: 1.16 µM (active)
IC50 (Protein Wnt-3a): 26.7 µM (inactive)
AC50 (INS1): 3.77 µM (active)
EC50 [18]: > 60 µM (not active)

Nc1ccc(Br)cc1-c1nc2ccccc2[nH]c1=O
IC50 (Protein Wnt-3a): 0.449 µM (active)

Cc1ccc(-c2cnn(-c3cccc([N+](=O)[O-])c3)c2N)cc1
IC50 [13]: 8.04 µM (active)
IC50 [14]: > 100 µM (inactive)
IC50 [15]: > 100 µM (inactive)
IC50 (Caspase-3): 23.7 µM (active)

COc1cc(C2c3cc4c(cc3C(OC3OC5COC(c6cccs6)OC5C(O)C3O)C3COC(=O)C23)OCO4)cc(OC)c1O (stereo unspecified)
AC50 [19]: 14.3 µM (active)
AC50 [20]: 1.28 µM (active)
EC50 (BJ [4]): 4.24 µM (active)
EC50 (BJ [6]): 5.79 µM (inconclusive)
AC50 [21]: 1.11 µM (active)
IC50 [22]: > 80 µM (inactive)
EC50 [23]: 5.15 µM (active)
EC50 (BJ [7]): 6.51 µM (inconclusive)
EC50 [8]: 8.49 µM (inconclusive)
EC50 [24]: 15.5 µM (active)
CC50 [25]: 16.5 µM (active)
EC50 [26]: < 0.1 µM (active)
EC50 (BJ [12]): 0.428 µM (active)
